Reference: patent US20060040871A1, “Bacterial transforming agent” (priority 2003, published 2006)
Where two headings read alike, the source gives them in different places.

Legend:
MRSA [1] = assay type: cell-based, Staphylococcus aureus; settings: 2% glycine; only in the presence of glycine
MRSA [2] = settings: increasing concentrations of glycine in the growth medium; cited from earlier work
MRSA [3] = assay type: cell-based, Staphylococcus aureus; settings: for MIC of methicillin: glycine 0.02M [0.15%]
Source text: Stored frozen plasma was pooled from five subjects.
Human plasma may bind or otherwise inactivate foreign substances and good activity in plasma is indicative of good in vivo activity.

[4] = tested on: vancomycin- and gentamicin-resistant Enterococcus faecium; experiment: microbe, parasite or virus in culture; assay type: cell-based
Source text: The agents of the present invention are not limited to the reversal of resistance in Staphylococcus. The test strains in Table 5 are patient-isolates of vancomycin- and gentamicin-resistant Enterococcus faecium. At the time of isolation, they were commonly resistant to all clinically useable antimicrobial agents.

Question: Which “transformation of MRSA into methicillin-sensitive strains” value (MRSA [1]) does the source give for `NCC(=O)O` [Glycine, glycine] here?
Answer: Its value is “transformed all MRSA into methicillin-sensitive strains”.

Question: What about the “effect on MIC of methicillin against MRSA” value (MRSA [2]) of the same molecule?
Answer: The value was “reduces the MIC of methicillin against MRSA”.

Question: And the “reduction in activity in human plasma” value (MRSA [3]; 1% human plasma, approximation from Table 3)?
Answer: Its value is “about 75%”.

Question: What about the MIC of methicillin (MRSA [3]; 5518 (EMRSA-1), +1% human plasma) of the same molecule?
Answer: Its MIC of methicillin is 32 µg/mL.

Question: And the MIC of methicillin (MRSA [3]; 5518 (EMRSA-1), no plasma)?
Answer: The MIC of methicillin was 8 µg/mL.

Question: What about the MIC of methicillin (MRSA [3]; L277, +1% human plasma) of the same molecule?
Answer: Its MIC of methicillin is 32 µg/mL.

Question: And the MIC of methicillin (MRSA [3]; L277, no plasma)?
Answer: Its MIC of methicillin is 8 µg/mL.

Question: What about the MIC of methicillin (MRSA [3]; L278, +1% human plasma) of the same molecule?
Answer: The MIC of methicillin was 256 µg/mL.

Question: What about the MIC of methicillin (MRSA [3]; L278, no plasma) of the same molecule?
Answer: Its MIC of methicillin is 64 µg/mL.

Question: And the MIC of methicillin (MRSA [3]; L279, +1% human plasma)?
Answer: The MIC of methicillin was 256 µg/mL.

Question: And the MIC of methicillin (MRSA [3]; L279, no plasma)?
Answer: Its MIC of methicillin is 64 µg/mL.

Question: And the MIC of methicillin (MRSA [3]; L280, +1% human plasma)?
Answer: Its MIC of methicillin is 64 µg/mL.

Question: What about the MIC of methicillin (MRSA [3]; L280, no plasma) of the same molecule?
Answer: Its MIC of methicillin is 16 µg/mL.

Question: What about the MIC of methicillin (MRSA [3]; L281, +1% human plasma) of the same molecule?
Answer: Its MIC of methicillin is 32 µg/mL.

Question: What about the MIC of methicillin (MRSA [3]; L281, no plasma) of the same molecule?
Answer: The MIC of methicillin was 8 µg/mL.

Question: What about the MIC of methicillin (MRSA [3]; L282, +1% human plasma) of the same molecule?
Answer: The MIC of methicillin was 256 µg/mL.

Question: What about the MIC of methicillin (MRSA [3]; L282, no plasma) of the same molecule?
Answer: The MIC of methicillin was 32 µg/mL.

Question: What about the MIC of methicillin (MRSA [3]; L283, +1% human plasma) of the same molecule?
Answer: The MIC of methicillin was 128 µg/mL.

Question: What about the MIC of methicillin (MRSA [3]; L283, no plasma) of the same molecule?
Answer: Its MIC of methicillin is 32 µg/mL.

Question: And the MIC of methicillin (MRSA [3]; L284, +1% human plasma)?
Answer: The MIC of methicillin was 256 µg/mL.

Question: And the MIC of methicillin (MRSA [3]; L284, no plasma)?
Answer: Its MIC of methicillin is 32 µg/mL.

Question: And the MIC of methicillin (MRSA [3]; L285, +1% human plasma)?
Answer: The MIC of methicillin was 256 µg/mL.

Question: And the MIC of methicillin (MRSA [3]; L285, no plasma)?
Answer: The MIC of methicillin was 32 µg/mL.

Question: And the MIC of methicillin (MRSA [3]; L286, +1% human plasma)?
Answer: The MIC of methicillin was 64 µg/mL.

Question: What about the MIC of methicillin (MRSA [3]; L286, no plasma) of the same molecule?
Answer: Its MIC of methicillin is 32 µg/mL.

Question: What about the MIC of methicillin (MRSA [3]; L287, +1% human plasma) of the same molecule?
Answer: The MIC of methicillin was 128 µg/mL.

Question: What about the MIC of methicillin (MRSA [3]; L287, no plasma) of the same molecule?
Answer: Its MIC of methicillin is 32 µg/mL.

Question: What about the MIC of methicillin (MRSA [3]; L288, +1% human plasma) of the same molecule?
Answer: The MIC of methicillin was 128 µg/mL.

Question: What about the MIC of methicillin (MRSA [3]; L288, no plasma) of the same molecule?
Answer: The MIC of methicillin was 32 µg/mL.

Question: What about the MIC of methicillin (MRSA [3]; L289, +1% human plasma) of the same molecule?
Answer: The MIC of methicillin was 256 µg/mL.

Question: And the MIC of methicillin (MRSA [3]; L289, no plasma)?
Answer: The MIC of methicillin was 32 µg/mL.

Question: And the MIC of methicillin (MRSA [3]; L290, +1% human plasma)?
Answer: The MIC of methicillin was 128 µg/mL.

Question: And the MIC of methicillin (MRSA [3]; L290, no plasma)?
Answer: The MIC of methicillin was 32 µg/mL.

Question: What about the MIC of methicillin (MRSA [3]; L291, +1% human plasma) of the same molecule?
Answer: The MIC of methicillin was 64 µg/mL.

Question: What about the MIC of methicillin (MRSA [3]; L291, no plasma) of the same molecule?
Answer: The MIC of methicillin was 32 µg/mL.

Question: What about the MIC of methicillin (MRSA [3]; L292, +1% human plasma) of the same molecule?
Answer: The MIC of methicillin was 256 µg/mL.

Question: What about the MIC of methicillin (MRSA [3]; L292, no plasma) of the same molecule?
Answer: The MIC of methicillin was 32 µg/mL.

Question: And the MIC of methicillin (MRSA [3]; L293, +1% human plasma)?
Answer: Its MIC of methicillin is 128 µg/mL.

Question: And the MIC of methicillin (MRSA [3]; L293, no plasma)?
Answer: The MIC of methicillin was 32 µg/mL.

Question: What about the MIC of methicillin (MRSA [3]; L294, +1% human plasma) of the same molecule?
Answer: Its MIC of methicillin is 128 µg/mL.

Question: And the MIC of methicillin (MRSA [3]; L294, no plasma)?
Answer: The MIC of methicillin was 16 µg/mL.

Question: What about the “strains tested achieving the target MIC of vancomycin of 2 mg/l” value ([4]; 0.2M glycine, Table 5) of the same molecule?
Answer: The value was 50%.

Question: What about the MIC of vancomycin ([4]; ATCC 29212, glycine 0.02M) of the same molecule?
Answer: Its MIC of vancomycin is 4 µg/mL.

Question: What about the MIC of vancomycin ([4]; ATCC 29212, glycine 0.2M) of the same molecule?
Answer: Its MIC of vancomycin is 2 µg/mL.

Question: And the MIC of vancomycin ([4]; BBC, glycine 0.02M)?
Answer: Its MIC of vancomycin is 16 µg/mL.

Question: And the MIC of vancomycin ([4]; BBC, glycine 0.2M)?
Answer: Its MIC of vancomycin is 4 µg/mL.

Question: What about the MIC of vancomycin ([4]; E254, glycine 0.02M) of the same molecule?
Answer: Its MIC of vancomycin is 16 µg/mL.

Question: What about the MIC of vancomycin ([4]; E254, glycine 0.2M) of the same molecule?
Answer: Its MIC of vancomycin is 4 µg/mL.

Question: What about the MIC of vancomycin ([4]; E267, glycine 0.02M) of the same molecule?
Answer: The MIC of vancomycin was 16 µg/mL.

Question: What about the MIC of vancomycin ([4]; E267, glycine 0.2M) of the same molecule?
Answer: Its MIC of vancomycin is 4 µg/mL.

Question: And the MIC of vancomycin ([4]; E271, glycine 0.02M)?
Answer: Its MIC of vancomycin is 8 µg/mL.

Question: And the MIC of vancomycin ([4]; E271, glycine 0.2M)?
Answer: Its MIC of vancomycin is 2 µg/mL.

Question: What about the MIC of vancomycin ([4]; E285, glycine 0.02M) of the same molecule?
Answer: The MIC of vancomycin was 16 µg/mL.

Question: What about the MIC of vancomycin ([4]; E285, glycine 0.2M) of the same molecule?
Answer: The MIC of vancomycin was 2 µg/mL.

Question: And the MIC of vancomycin ([4]; E297, glycine 0.02M)?
Answer: Its MIC of vancomycin is 8 µg/mL.

Question: And the MIC of vancomycin ([4]; E297, glycine 0.2M)?
Answer: Its MIC of vancomycin is 2 µg/mL.

Question: What about the MIC of vancomycin ([4]; GBC, glycine 0.02M) of the same molecule?
Answer: Its MIC of vancomycin is 8 µg/mL.

Question: And the MIC of vancomycin ([4]; GBC, glycine 0.2M)?
Answer: Its MIC of vancomycin is 4 µg/mL.

Question: What about the MIC of vancomycin ([4]; S226, glycine 0.02M) of the same molecule?
Answer: The MIC of vancomycin was 8 µg/mL.

Question: And the MIC of vancomycin ([4]; S226, glycine 0.2M)?
Answer: The MIC of vancomycin was 4 µg/mL.

Question: And the MIC of vancomycin ([4]; S227, glycine 0.02M)?
Answer: The MIC of vancomycin was 32 µg/mL.

Question: And the MIC of vancomycin ([4]; S227, glycine 0.2M)?
Answer: The MIC of vancomycin was 4 µg/mL.

Question: And the MIC of vancomycin ([4]; S283, glycine 0.02M)?
Answer: Its MIC of vancomycin is 8 µg/mL.

Question: And the MIC of vancomycin ([4]; S283, glycine 0.2M)?
Answer: The MIC of vancomycin was 2 µg/mL.

Question: What about the MIC of vancomycin ([4]; S302, glycine 0.02M) of the same molecule?
Answer: The MIC of vancomycin was 8 µg/mL.

Question: And the MIC of vancomycin ([4]; S302, glycine 0.2M)?
Answer: Its MIC of vancomycin is 4 µg/mL.

Question: What about the MIC of vancomycin ([4]; S315, glycine 0.02M) of the same molecule?
Answer: Its MIC of vancomycin is 4 µg/mL.

Question: What about the MIC of vancomycin ([4]; S315, glycine 0.2M) of the same molecule?
Answer: Its MIC of vancomycin is 1 µg/mL.

Question: And the MIC of vancomycin ([4]; S317, glycine 0.02M)?
Answer: The MIC of vancomycin was 32 µg/mL.

Question: And the MIC of vancomycin ([4]; S317, glycine 0.2M)?
Answer: The MIC of vancomycin was 4 µg/mL.

Question: What about the MIC of vancomycin ([4]; S319, glycine 0.02M) of the same molecule?
Answer: The MIC of vancomycin was 16 µg/mL.

Question: What about the MIC of vancomycin ([4]; S319, glycine 0.2M) of the same molecule?
Answer: Its MIC of vancomycin is 4 µg/mL.

Question: And the MIC of vancomycin ([4]; S333, glycine 0.02M)?
Answer: Its MIC of vancomycin is 8 µg/mL.

Question: And the MIC of vancomycin ([4]; S333, glycine 0.2M)?
Answer: Its MIC of vancomycin is 2 µg/mL.

Question: And the MIC of vancomycin ([4]; S337, glycine 0.02M)?
Answer: The MIC of vancomycin was 4 µg/mL.

Question: And the MIC of vancomycin ([4]; S337, glycine 0.2M)?
Answer: Its MIC of vancomycin is 2 µg/mL.

Question: What about the MIC of vancomycin ([4]; S393, glycine 0.02M) of the same molecule?
Answer: Its MIC of vancomycin is 8 µg/mL.

Question: What about the MIC of vancomycin ([4]; S393, glycine 0.2M) of the same molecule?
Answer: Its MIC of vancomycin is 2 µg/mL.

Question: What about the MIC of vancomycin ([4]; S497, glycine 0.02M) of the same molecule?
Answer: The MIC of vancomycin was 8 µg/mL.

Question: And the MIC of vancomycin ([4]; S497, glycine 0.2M)?
Answer: The MIC of vancomycin was 2 µg/mL.

Question: What about the MIC of vancomycin ([4]; S556, glycine 0.02M) of the same molecule?
Answer: The MIC of vancomycin was 32 µg/mL.

Question: What about the MIC of vancomycin ([4]; S556, glycine 0.2M) of the same molecule?
Answer: Its MIC of vancomycin is 2 µg/mL.

Question: What about the MIC of vancomycin ([4]; WBC, glycine 0.02M) of the same molecule?
Answer: The MIC of vancomycin was 8 µg/mL.

Question: And the MIC of vancomycin ([4]; WBC, glycine 0.2M)?
Answer: The MIC of vancomycin was 4 µg/mL.
